Reference: ChEMBL document CHEMBL1201862, “PubChem BioAssay data set” (2004)
Activity calls are given as the source filed them.

Assays:
Large T antigen = Large T antigen (Simian virus 40, UniProt P03070); format: functional, Betapolyomavirus macacae;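 further: Confirmatory-stage PubChem screen for compounds that inhibit SV40 T antigen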
[1] = molecular target: T1, Alkaline phosphatase, tissue-nonspecific isozyme (Homo sapiens, UniProt P05186); assay: inhibition of tissue-nonspecific alkaline phosphatase – biochemical, dose response (AID 488882); format: functional
T1 sequence (P05186 whole entry): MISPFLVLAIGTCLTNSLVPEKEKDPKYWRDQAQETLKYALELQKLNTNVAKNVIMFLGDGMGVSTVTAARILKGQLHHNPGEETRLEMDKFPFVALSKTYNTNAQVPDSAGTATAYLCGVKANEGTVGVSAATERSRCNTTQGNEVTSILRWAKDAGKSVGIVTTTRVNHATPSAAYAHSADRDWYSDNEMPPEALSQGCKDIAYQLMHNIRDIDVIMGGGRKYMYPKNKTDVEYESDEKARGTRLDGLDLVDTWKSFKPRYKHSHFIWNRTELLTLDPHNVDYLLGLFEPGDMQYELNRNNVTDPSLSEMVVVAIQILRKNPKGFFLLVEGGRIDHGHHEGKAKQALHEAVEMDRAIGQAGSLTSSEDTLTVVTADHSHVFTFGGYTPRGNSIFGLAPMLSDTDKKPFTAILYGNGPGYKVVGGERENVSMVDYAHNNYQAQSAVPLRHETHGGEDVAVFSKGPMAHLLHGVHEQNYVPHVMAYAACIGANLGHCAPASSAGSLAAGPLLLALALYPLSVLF

[2] = molecular target: T2, Intestinal-type alkaline phosphatase (Homo sapiens, UniProt P09923); assay: inhibition of human intestinal alkaline phosphatase – biochemical, luminescent, uHTS hits, set 2, dose response (AID 488793); format: functional
T2 sequence (P09923 whole entry): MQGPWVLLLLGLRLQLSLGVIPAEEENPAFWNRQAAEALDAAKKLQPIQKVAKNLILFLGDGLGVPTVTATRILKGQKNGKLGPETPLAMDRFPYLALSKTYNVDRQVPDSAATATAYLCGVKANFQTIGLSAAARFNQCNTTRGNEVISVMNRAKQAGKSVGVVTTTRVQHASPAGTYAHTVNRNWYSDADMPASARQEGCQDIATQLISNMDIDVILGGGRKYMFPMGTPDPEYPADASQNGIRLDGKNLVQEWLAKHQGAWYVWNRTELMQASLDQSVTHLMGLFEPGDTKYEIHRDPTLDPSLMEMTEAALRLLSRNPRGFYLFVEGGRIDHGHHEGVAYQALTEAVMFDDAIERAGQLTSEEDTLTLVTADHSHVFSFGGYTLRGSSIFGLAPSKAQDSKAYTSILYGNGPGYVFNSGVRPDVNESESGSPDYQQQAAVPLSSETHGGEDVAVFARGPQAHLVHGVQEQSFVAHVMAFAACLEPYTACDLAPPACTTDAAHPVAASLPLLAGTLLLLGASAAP

Leucine aminopeptidase = molecular target: T3, Leucine aminopeptidase (Plasmodium falciparum 3D7, UniProt Q8IL11); assay: P. falciparum M17LAP inhibitors, primary screen, biochemical, fluorogenic H-Leu-NHMec substrate, 1536-well (AID 1619); format: functional
T3 sequence (Q8IL11 whole entry): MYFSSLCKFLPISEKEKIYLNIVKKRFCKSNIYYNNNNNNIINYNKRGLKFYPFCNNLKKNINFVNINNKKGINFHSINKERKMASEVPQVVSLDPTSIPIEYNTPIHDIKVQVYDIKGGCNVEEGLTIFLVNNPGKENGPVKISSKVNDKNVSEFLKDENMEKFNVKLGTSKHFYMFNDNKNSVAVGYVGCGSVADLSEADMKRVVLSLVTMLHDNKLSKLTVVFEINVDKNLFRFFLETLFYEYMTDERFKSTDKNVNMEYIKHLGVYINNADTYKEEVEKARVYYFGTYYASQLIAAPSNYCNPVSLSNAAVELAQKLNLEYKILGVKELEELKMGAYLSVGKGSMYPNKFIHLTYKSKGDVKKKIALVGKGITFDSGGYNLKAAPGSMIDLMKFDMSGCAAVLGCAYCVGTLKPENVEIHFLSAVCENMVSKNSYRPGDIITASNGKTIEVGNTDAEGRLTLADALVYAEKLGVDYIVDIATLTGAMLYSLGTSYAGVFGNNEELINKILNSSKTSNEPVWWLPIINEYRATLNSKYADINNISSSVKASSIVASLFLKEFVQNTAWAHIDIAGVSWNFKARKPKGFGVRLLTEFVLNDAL

[3] = molecular target: T4, Intestinal-type alkaline phosphatase (Mus musculus, UniProt P24822); assay: PubChem AID 488874; format: functional
T4 sequence (P24822 whole entry): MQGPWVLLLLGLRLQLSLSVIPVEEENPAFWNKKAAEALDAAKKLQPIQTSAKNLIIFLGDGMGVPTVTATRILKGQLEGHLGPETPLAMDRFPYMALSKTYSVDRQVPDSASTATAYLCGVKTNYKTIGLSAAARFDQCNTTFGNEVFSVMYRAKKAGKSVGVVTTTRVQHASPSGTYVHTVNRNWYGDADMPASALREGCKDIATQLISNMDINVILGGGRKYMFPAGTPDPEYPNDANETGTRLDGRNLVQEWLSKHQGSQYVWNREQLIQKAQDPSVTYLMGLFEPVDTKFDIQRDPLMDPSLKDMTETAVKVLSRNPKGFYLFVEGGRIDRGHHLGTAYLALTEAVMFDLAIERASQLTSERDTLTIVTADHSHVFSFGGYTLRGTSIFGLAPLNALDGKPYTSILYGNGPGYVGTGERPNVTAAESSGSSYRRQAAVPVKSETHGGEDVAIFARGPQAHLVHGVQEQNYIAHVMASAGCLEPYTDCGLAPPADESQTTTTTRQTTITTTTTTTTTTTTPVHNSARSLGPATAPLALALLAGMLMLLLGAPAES

[4] = molecular target: T2, Intestinal-type alkaline phosphatase; assay: Dose Response confirmation of uHTS hits from a small molecule inhibitors of human intestinal alkaline phosphatase via a luminescent assay. [Related pubchem assays (depositor defined):AID2544, AID2574]; format: functional
Tumor necrosis factor [5] = molecular target: T5, Tumor necrosis factor (Homo sapiens, UniProt P01375); assay: analog potency on TNFa NF-kB signaling – cell-based, revised, SAR follow-up (AID 2337); format: functional
T5 sequence (P01375 whole entry): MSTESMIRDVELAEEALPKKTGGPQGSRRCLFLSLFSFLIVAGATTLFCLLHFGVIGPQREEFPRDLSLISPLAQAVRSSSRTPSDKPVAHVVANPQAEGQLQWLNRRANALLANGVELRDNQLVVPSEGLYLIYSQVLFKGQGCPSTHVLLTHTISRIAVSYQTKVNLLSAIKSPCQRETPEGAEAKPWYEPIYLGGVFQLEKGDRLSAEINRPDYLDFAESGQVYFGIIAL

HEK293 [6] = assay: SAR analysis of compounds that are cytotoxic to HEK293 - Set 3. [Related pubchem assays (depositor defined):AID1575, AID1578, AID1848, AID1849, AID2001, AID2333, AID2334, AID2335, AID2337, AID2469]; format: functional, cell-based; conditions: Homo sapiens
[7] = molecular target: Nucleotide-binding oligomerization domain-containing protein 2 (Homo sapiens, UniProt Q9HC29); assay: inhibition of MDP-driven NOD2 NF-kB reporter – cell-based, set 3, SAR follow-up (AID 2799); format: functional
Sequence of Nucleotide-binding oligomerization domain-containing protein 2 (Q9HC29 whole entry, the tested form may be a part): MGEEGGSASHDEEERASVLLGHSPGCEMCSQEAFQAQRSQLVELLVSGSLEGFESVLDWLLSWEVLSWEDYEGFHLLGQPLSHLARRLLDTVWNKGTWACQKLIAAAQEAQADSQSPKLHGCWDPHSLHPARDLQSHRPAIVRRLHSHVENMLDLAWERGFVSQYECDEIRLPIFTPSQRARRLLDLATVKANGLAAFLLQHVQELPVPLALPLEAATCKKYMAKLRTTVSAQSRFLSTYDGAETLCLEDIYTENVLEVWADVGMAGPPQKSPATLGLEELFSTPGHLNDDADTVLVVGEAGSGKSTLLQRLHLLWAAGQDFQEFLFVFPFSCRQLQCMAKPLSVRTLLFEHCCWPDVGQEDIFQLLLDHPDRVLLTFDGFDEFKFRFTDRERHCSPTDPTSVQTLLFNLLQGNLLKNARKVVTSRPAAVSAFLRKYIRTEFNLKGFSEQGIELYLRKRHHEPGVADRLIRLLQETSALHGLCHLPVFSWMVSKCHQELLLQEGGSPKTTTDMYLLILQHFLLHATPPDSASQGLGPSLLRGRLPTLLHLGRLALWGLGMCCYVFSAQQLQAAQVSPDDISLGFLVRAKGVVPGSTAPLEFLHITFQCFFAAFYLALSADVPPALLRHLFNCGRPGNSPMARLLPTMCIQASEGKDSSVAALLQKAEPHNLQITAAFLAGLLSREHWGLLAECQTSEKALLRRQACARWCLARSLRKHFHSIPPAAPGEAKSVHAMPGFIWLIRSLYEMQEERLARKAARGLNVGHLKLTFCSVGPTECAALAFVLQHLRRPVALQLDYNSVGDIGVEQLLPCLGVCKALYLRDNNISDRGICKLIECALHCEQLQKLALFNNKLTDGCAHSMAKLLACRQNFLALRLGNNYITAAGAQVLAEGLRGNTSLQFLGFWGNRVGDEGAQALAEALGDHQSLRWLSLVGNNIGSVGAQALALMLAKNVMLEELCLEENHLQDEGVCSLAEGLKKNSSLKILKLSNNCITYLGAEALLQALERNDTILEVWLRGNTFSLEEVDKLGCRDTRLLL

Tumor necrosis factor [8] = molecular target: T5, Tumor necrosis factor; assay: analog potency on TNFa NF-kB signaling – cell-based, set 3, SAR follow-up (AID 2801); format: functional
HEK293 [9] = assay: cells; conditions: Homo sapiens
[10] = molecular target: T6, Nucleotide-binding oligomerization domain-containing protein 1 (Homo sapiens, UniProt Q9Y239); assay: SAR analysis of compounds that inhibit NOD1 - Set 3. [Related pubchem assays (depositor defined):AID1566, AID1575, AID1578, AID1849, AID1852, AID2333, AID2335, AID2466]; format: functional
T6 sequence (Q9Y239 whole entry): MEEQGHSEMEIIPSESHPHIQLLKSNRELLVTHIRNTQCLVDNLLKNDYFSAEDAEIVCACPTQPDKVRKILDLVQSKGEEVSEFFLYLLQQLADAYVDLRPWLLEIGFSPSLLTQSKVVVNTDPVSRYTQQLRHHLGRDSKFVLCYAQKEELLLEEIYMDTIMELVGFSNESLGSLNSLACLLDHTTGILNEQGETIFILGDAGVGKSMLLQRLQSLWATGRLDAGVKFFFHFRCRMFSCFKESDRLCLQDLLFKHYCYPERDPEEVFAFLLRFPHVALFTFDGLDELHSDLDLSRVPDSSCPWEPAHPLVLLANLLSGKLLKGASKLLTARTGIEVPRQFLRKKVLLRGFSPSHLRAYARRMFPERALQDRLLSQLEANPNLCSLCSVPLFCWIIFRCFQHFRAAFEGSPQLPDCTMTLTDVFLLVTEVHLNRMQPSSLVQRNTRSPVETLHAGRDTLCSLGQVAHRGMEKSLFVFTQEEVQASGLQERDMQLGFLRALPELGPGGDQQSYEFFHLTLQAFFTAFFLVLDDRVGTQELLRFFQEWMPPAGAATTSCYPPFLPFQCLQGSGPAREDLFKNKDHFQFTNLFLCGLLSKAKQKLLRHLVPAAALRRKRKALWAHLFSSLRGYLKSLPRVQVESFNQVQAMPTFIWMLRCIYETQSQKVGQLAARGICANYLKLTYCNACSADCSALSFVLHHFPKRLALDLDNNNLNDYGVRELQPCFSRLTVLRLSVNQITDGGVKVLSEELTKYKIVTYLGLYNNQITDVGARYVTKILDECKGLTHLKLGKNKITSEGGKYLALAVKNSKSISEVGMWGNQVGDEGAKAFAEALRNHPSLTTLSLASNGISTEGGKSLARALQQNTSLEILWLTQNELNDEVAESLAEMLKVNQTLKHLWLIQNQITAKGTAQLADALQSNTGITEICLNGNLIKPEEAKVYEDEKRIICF

[11] = molecular target: T1, Alkaline phosphatase, tissue-nonspecific isozyme; assay: activation of tissue-nonspecific alkaline phosphatase – biochemical, TNAP isozyme, mouse IAP uHTS hits, selectivity assay for mouse IAP activator project, dose response (AID 488880); format: functional
[12] = molecular target: T2, Intestinal-type alkaline phosphatase; assay: activation of human intestinal alkaline phosphatase – biochemical, dose response (AID 488873); format: functional
[13] = molecular target: T4, Intestinal-type alkaline phosphatase; assay: mouse intestinal alkaline phosphatase activators, dose response, biochemical, luminescence, uHTS hits (AID 488783); format: functional

Sequence of Large T antigen (P03070 whole entry): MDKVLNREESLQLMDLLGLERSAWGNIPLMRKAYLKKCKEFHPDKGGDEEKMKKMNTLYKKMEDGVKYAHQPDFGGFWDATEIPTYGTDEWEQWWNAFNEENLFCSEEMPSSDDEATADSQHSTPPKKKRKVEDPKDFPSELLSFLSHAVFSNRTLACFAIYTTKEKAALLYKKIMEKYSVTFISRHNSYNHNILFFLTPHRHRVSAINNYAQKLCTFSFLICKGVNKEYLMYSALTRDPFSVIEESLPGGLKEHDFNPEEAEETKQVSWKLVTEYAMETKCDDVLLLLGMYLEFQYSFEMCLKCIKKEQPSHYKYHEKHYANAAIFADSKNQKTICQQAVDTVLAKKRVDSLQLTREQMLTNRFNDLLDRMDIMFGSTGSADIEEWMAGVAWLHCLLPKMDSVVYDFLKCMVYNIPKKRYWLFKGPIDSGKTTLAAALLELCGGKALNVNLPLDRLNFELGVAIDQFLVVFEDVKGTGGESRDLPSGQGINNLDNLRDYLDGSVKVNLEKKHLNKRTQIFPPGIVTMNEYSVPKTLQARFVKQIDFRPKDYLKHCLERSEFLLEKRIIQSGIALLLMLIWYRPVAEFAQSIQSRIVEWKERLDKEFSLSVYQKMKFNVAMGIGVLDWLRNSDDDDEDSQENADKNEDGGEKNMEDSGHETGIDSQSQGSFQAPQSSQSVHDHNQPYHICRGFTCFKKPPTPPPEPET

For O=C(O)C1OC(Oc2c(-c3ccc(O)c(O)c3)oc3cc(O)cc(O)c3c2=O)C(O)C(O)C1O (stereo not given), the IC50 (Large T antigen) was 9.8 µM (active), the IC50 [1] was > 100 µM (inactive) and the IC50 [2] was 0.891 µM (active). For the same compound, the IC50 (Leucine aminopeptidase) was 48.2 µM (active), the IC50 [3] was 3.29 µM (active) and the IC50 [4] was 3.15 µM (active).

With Nc1cc(NC(=O)c2ccc3ccccc3c2O)ccc1Cl the IC50 (Tumor necrosis factor [5]) was > 20 µM (inactive), the IC50 (HEK293 [6]) was > 20 µM (inactive) and the IC50 [7] was > 20 µM (inactive). The IC50 (Tumor necrosis factor [8]) was > 20 µM (inactive), the IC50 (HEK293 [9]) was > 20 µM (inactive) and the IC50 [10] was > 20 µM (inactive).

For O=C1CC(c2ccc(O)c(O)c2)Oc2cc(O)cc(O)c21 (stereo not given), the EC50 [11] was 81.8 µM (active), the EC50 [12] was 50.4 µM (active) and the EC50 [13] was 54.1 µM (active).
